How the values were obtained:
A2780 cells = test: Mechanism of death of A2780 cells (Annexin A5/PI flow cytometry); type: cell-based, human; conditions: A2780, 48 h
Protocol: Figure S54. Effect of prodrugs 1 and 2c (48 h incubation) on the intracellular amount of GSH in Jurkat cells. *: p< 0.05; ns: non-significant (Student’s t test). Detailed experimental description is provided above.
Study of the mechanism of death of A2780 cells induced by prodrug 2c and controls A2780 cells were seeded into 96 well culture plates at the same cell concentration and in the same medium as applied for the above described MTT assay (48 h incubation with the prodrugs). The next day, stock solutions of prodrugs of different concentrations (1 µ L, solvent DMSO, final concentrations in wells were 5, 10 and 30 µ M) or carrier only (DMSO, 1 µ L, final concentration 1 %, v/v) were added to the wells and incubated in the chamber filled with CO 2 (5%). After 48 h supernatants were transferred into 1.5 mL Eppendorf tubes and 100 µ L of DPBS was added to transfer supernatant residue into tube. Trypsin (0.25%, 50 µ L) was then added to well to detach the cells. All supernatants in Eppendorf tubes were combined back into wells. After gently pipetting up and down, 50 µ L of cell solutions was transferred into a new Eppendorf tube and incubated with 200 µ L of staining solution, consisting of Annexin A5-Fitc (5 µ L) and propidium iodide (PI, 330 ng) per 1 mL buffer (conc. 1X). […]

[1] = Hydrolysis of prodrugs in aqueous neutral solution (HPLC-UV-MS); type: physicochemical; conditions: 1 to 1_BA
Protocol: To identify the active form of prodrugs 2a–2d in aqueous neutral buffers, we investigated their stability in the water rich solvent mixture containing triethylammonium acetate buffer (pH 7.0, 1.5 mM) and CH3CN (7/3, v/v). We observed that even freshly prepared solutions of analytically pure samples of 2a–2d (peaks eluted at 10.2–10.7 min) contain hydrolyzed species corresponding to boronic acid derivatives 2a_BA–2d_BA (peaks eluted at 7.1–7.5 min, 7–14% of the area of all peaks) (Figure S43, SI). After 2 h incubation of these samples, the peaks of 2a_BA–2d_BA become major ones (79–87% of the area of all peaks, Figure S43, SI).
Figure S42. High resolution ESI-TOF mass spectrum of HCl salt of drug 4 (4*HCl): upper plot – experimental spectrum; bottom plot – theoretical spectrum.
Determination of crystal structure of prodrug 2a […]
Stock solutions of prodrugs (2a-2d, 3 mM) in DMSO were first prepared. […] After the probes (20 µL) of these solutions were incubated for 0 or 2 h at 37 °C, they were injected to HPLC coupled to UV-visible detector (detection of absorbance at 254 nm) and electrospray mass spectrometric detector (detection of positively charged ions in the m/z range of 300 - 1200) and the analytes were separate d by using gradients of CH3CN (containing formic acid, 0.1 %, v/v) in water (containing ammonium formate, 10 mM and formic acid, 0.1 %, v/v) from 15% to 95%. […]

| SMILES | mechanism of cell death (A2780 cells) | time of formation of the hydrolyzed form in aqueous neutral solution [1] [h] |
| --- | --- | --- |
| CC1(C)OB(c2ccc(COC(=O)N(Cc3cn(Cc4ccc(Cn5cc(Cc6ccccc6)nn5)cc4)nn3)[c-]3cccc3)cc2)OC1(C)C.[Fe+2].c1cc[cH-]c1 [2c] | mainly via necrosis | – |
| CCOC(=O)CCCCCn1cc(CN(C(=O)OCc2ccc(B3OC(C)(C)C(C)(C)O3)cc2)[c-]2cccc2)nn1.[Fe+2].c1cc[cH-]c1 [compound 1] | – | < 2 |

Source: article PMC8750417, “Intracellular Amplifiers of Reactive Oxygen Species Affecting Mitochondria as Radiosensitizers” (Cancers, 2021)
